From the supplement of paper PMC8253809

Key:
Experiment in all cases: area under dose-response curve of % growth inhibition (log2 RLU vs DMSO / staurosporine), 1e-11 to 1e-4 M (% x log10 M); higher = more growth inhibition
[1] = system: DIPGX29 (H3.3 K27M diffuse intrinsic pontine glioma line)
How it was run: (§1)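 Patient-derived pHGG/DIPG cell lines and astrocytes, cultured on 384-well plates with a 1% Geltrex coating, were given a 10-point threefold dilution series (mean top concentration 35 μM) in triplicate for 7 days (iAstro 3 days) at 37 °C, 5% CO2. CellTiter-Glo signal, log2-transformed and normalised per plate to % activity against solvent and positive controls, was fitted with a log-logistic curve or, where the sigmoid fit failed, a smoothing spline. Area under the curve was then computed by the trapezoid rule.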

[2] = system: DIPGX37 (H3.3 K27M diffuse intrinsic pontine glioma line)
How it was run: as §1

[3] = system: HGGX39 (paediatric high-grade glioma line)
How it was run: as §1

[4] = system: HGGX6 (H3.3 G34R paediatric high-grade glioma line)
How it was run: as §1

Compound	area under dose-response curve [1]	area under dose-response curve [2]	area under dose-response curve [3]	area under dose-response curve [4]
COc1cc([C@@H]2c3cc4c(cc3[C@@H](O[C@@H]3O[C@@H]5CO[C@@H](C)O[C@H]5[C@H](O)[C@H]3O)[C@H]3COC(=O)[C@H]23)OCO4)cc(OC)c1O [ETOPOSIDE]	39.6	14.2	33.1	25.4
Cc1cc(C#N)cc(C)c1Oc1nc(Nc2ccc(C#N)cc2)nc(N)c1Br [ETRAVIRINE]	24.2	10.8	18.9	9.91
CS(=O)(=O)c1ccc([C@@H](O)[C@@H](CF)NC(=O)C(Cl)Cl)cc1 [FLORFENICOL]	11.3	10.6	15.6	4.4
Nc1nc(F)nc2c1ncn2[C@@H]1O[C@H](COP(=O)(O)O)[C@@H](O)[C@@H]1O [FLUDARABINE PHOSPHATE]	32.1	39.7	10.3	6.46
N[C@H](CCC(=O)N[C@@H](Cc1c[nH]c2ccccc12)C(=O)O)C(=O)O [GOLOTIMOD]	8.23	15.2	0.705	5.25
CCCOc1ccn2c(C(C)=O)cc(-c3ccccc3S(C)(=O)=O)c2c1 [GSK2801]	19.1	8.52	10.4	21.4
COc1ccccc1C(=O)Nc1cc2c(cc1N1CCCCC1)n(C)c(=O)n2C [GSK-5959]	8.32	76.9	41.9	45.8
c1ccc([C@@H]2C[C@H]2NC2CCNCC2)cc1 [GSK-LSD1]	0	5.85	0	0
Nc1ncn([C@H]2C[C@H](OP(=O)(O)OC[C@H]3O[C@@H](n4cnc5c(=O)[nH]c(N)nc54)C[C@@H]3O)[C@@H](CO)O2)c(=O)n1 [GUADECITABINE]	0	16.4	0	0
CCN(CCO)CCCC(C)Nc1ccnc2cc(Cl)ccc12 (stereo not given) [HYDROXYCHLOROQUINE]	5.15	8.17	0	1.95
CCC(=O)N1CCOc2c(cc(-c3ccc(OC)c(OC)c3)cc2OC[C@H]2CCCN(C)C2)C1 [I-CBP112]	14.1	18	2.35	16.4
COc1cc(C(C)=O)ccc1OCCCN1CCC(c2noc3cc(F)ccc23)CC1 [ILOPERIDONE]	15.1	13.2	10.3	5.98
O=C(O)c1ccc(O)c2ncccc12 [IOX1]	3.7	9.36	2.63	5.89
O=C(O)CNC(=O)c1c(O)c2ccccc2n(Cc2ccccc2)c1=O [IOX2]	9.33	6.07	12.7	12.6
CCOC(=O)c1ccnc(CNCC(=O)N(CC)CCN(C)C)c1 [KDM5-C70]	9.21	3.66	7.74	2.7
Cc1oncc1C(=O)Nc1ccc(C(F)(F)F)cc1 [LEFLUNOMIDE]	5.84	2.94	4.82	2.22
CC(N[C@H]1C[C@@H]1c1ccccc1)c1ccc2c(c1)OCCO2 (stereo not given in full) [LSD1-C76]	6.56	24	12	7.75
CN(Cc1cnc2nc(N)nc(N)c2n1)c1ccc(C(=O)N[C@@H](CCC(=O)O)C(=O)O)cc1 [METHOTREXATE]	44.1	30.5	39.9	58.8
Clc1ccc(C(c2ccccc2Cl)C(Cl)Cl)cc1 (stereo not given) [MITOTANE]	12.9	16.1	8.7	12.5
C[C@@H]1C[C@H]2[C@@H]3CCC4=CC(=O)C=C[C@]4(C)[C@@]3(Cl)[C@@H](O)C[C@]2(C)[C@@]1(OC(=O)c1ccco1)C(=O)CCl [MOMETASONE FUROATE]	42.1	40.5	20.8	8.37
CC(C)Oc1ccc(-c2c[nH]cc2CN(C)CCN)cc1 [MS023]	10.9	10.6	8.58	14.7
CNCCN1CCC(OCc2ccccc2)CC1 [MS049]	19.1	10.6	9.22	11.9
COc1cc(C#N)ccc1S(=O)(=O)Nc1ccc2c(c1)cc(C)c(=O)n2C [NI-57]	13.6	7.6	22.9	15.9
CC1CS(=O)(=O)CCN1/N=C/c1ccc([N+](=O)[O-])o1 (stereo not given) [NIFURTIMOX]	18.2	17.9	23.6	22
Cc1cn(-c2cc(NC(=O)c3ccc(C)c(Nc4nccc(-c5cccnc5)n4)c3)cc(C(F)(F)F)c2)cn1 [NILOTINIB]	14.3	18.9	14.9	16.8

Compound	area under dose-response curve [1]	area under dose-response curve [2]	area under dose-response curve [3]	area under dose-response curve [4]
Cc1ncc(CNC(=O)N(CCCl)N=O)c(N)n1 [NIMUSTINE]	1.11	0	1.19	1.35
COc1ccc2c(c1OC)C(=O)O[C@@H]2[C@H]1c2c(cc3c(c2OC)OCO3)CCN1C [NOSCAPINE]	3.97	4.1	3.21	3.61
CN1CCN(c2ccc(-c3cccc(CN4CCOCC4)c3)cc2NC(=O)c2c[nH]c(=O)cc2C(F)(F)F)CC1 [OICR-9429]	6.88	4.44	6.53	15.6
Cc1ccc(Nc2nccc(N(C)c3ccc4c(C)n(C)nc4c3)n2)cc1S(N)(=O)=O [PAZOPANIB]	14.4	12.6	14.8	16.8
Nc1nc2[nH]cc(CCc3ccc(C(=O)N[C@@H](CCC(=O)O)C(=O)O)cc3)c2c(=O)[nH]1 [PEMETREXED]	34.6	9.28	23.2	12.7
OC[C@H]1O[C@@H](n2cnc3c2N=CNC[C@H]3O)C[C@@H]1O [PENTOSTATIN]	3.92	10.9	10	5.39
COc1ccccc1S(=O)(=O)Nc1ccc2c(c1)CN(C)C(=O)N2 [PFI-1]	23.7	27.8	20.6	17.1
O=C(/C=C/N1C[C@H]2C[C@@H]1CN2c1ccccn1)c1ccccc1O [PFI-3]	9.58	20.6	10.6	11.5
COc1ccccc1C(=O)Nc1cc2c(cc1N1CCCC1)n(C)c(=O)n2C [PFI-4]	21.9	6.98	20.5	18.2
CC(C)N(C[C@H]1O[C@@H](n2cnc3c(N)ncnc32)[C@H](O)[C@@H]1O)[C@H]1C[C@@H](CCc2nc3cc(C(C)(C)C)ccc3[nH]2)C1 [PINOMETOSTAT]	6.21	14.5	0.36	4.37
CCc1ccc(CCOc2ccc(CC3SC(=O)NC3=O)cc2)nc1 (stereo not given) [PIOGLITAZONE]	10.8	35.1	11.2	11.5
c1cc(CN2CCCNCCNCCCNCC2)ccc1CN1CCCNCCNCCCNCC1 [PLERIXAFOR]	16.6	32.1	21	3.55
CCN(CC)CCOC(=O)c1ccc(N)cc1 [PROCAINE]	3.12	1.95	1.44	0
CCc1nc(N)nc(N)c1-c1ccc(Cl)cc1 [PYRIMETHAMINE]	25	6.34	26.5	26.9
Cc1nc(=O)c2cc(CN(C)c3ccc(C(=O)N[C@@H](CCC(=O)O)C(=O)O)s3)ccc2[nH]1 [RALTITREXED]	26.5	26.9	33.4	16
COc1cc(OC)c2c(=O)[nH]c(-c3cc(C)c(OCCO)c(C)c3)nc2c1 [RVX-208]	5.91	2.33	8.2	12
COc1ccc(CCc2nc3cc(-c4c(C)noc4C)ccc3n2C[C@H](C)N2CCOCC2)cc1Cl [SGC-CBP30]	7.64	13.9	14	11.7
CC1=C(CC(=O)O)c2cc(F)ccc2/C1=C\c1ccc([S+](C)[O-])cc1 (stereo not given) [SULINDAC]	3.44	16.9	4.57	6.88
CC1(C)CCC(C)(C)c2cc(NC(=O)c3ccc(C(=O)O)cc3)ccc21 [TAMIBAROTENE]	19.3	37.3	44.5	28.3
COc1cccc2c1c(O)c(C(=O)N(C)c1ccc(C(F)(F)F)cc1)c(=O)n2C [TASQUINIMOD]	0	4.17	0	0
Cn1nnc2c(C(N)=O)ncn2c1=O [TEMOZOLOMIDE]	5.13	15.4	11.3	15.3
COc1cc2nccc(Oc3ccc(NC(=O)Nc4cc(C)on4)c(Cl)c3)c2cc1OC [TIVOZANIB]	14.6	31.3	21.7	42.5
O=c1[nH]c(=O)n([C@H]2C[C@H](O)[C@@H](CO)O2)cc1C(F)(F)F [TRIFLURIDINE]	7.68	22.2	21	3.99
COc1cc(NCc2ccc3nc(N)nc(N)c3c2C)cc(OC)c1OC [TRIMETREXATE]	51	11.6	28.7	31.9
CN1[C@@H]2CC[C@H]1C[C@@H](OC(=O)c1c[nH]c3ccccc13)C2 [TROPISETRON]	18.7	33.4	19.5	10.2
